From US9956157B2, “Composition containing fucosterol for skin whitening or moisturizing” (INDUSTRY-ACADEMIC COOPERATION FOUNDATION, YONSEI UNIVERSITY, priority 2014, dated 2018)

How the values were obtained:
Type in all cases: cell-based
[1] = system: MITF (microphthalmia transcription factor); test: MITF mRNA expression (RT-PCR) in B16F10 melanoma cells; conditions: 200 nM α-MSH, fucosterol 5 and 20 μM, 24 hrs, FIG. 7
Experimental: B16F10 melanoma cells were incubated in a DMEM medium including 10% fetal bovine serum and then added in a 6-well plate with 2.5×10^5 cell/mL (the final volume of 3 mL). After being incubated for 24 hrs, the medium was removed and fucosterol which was dissolved in the DMEM medium including 200 nM α-MSH was treated at 5 and 20 μM of concentrations, respectively. After 24 hrs, the total RNA was isolated by using a TRIzol reagent (Invitrogen, Carlsbad, Calif., USA). The isolated total RNAs were quantified by using a nano-drop (ND-1000). The quantified RNA was synthesized to cDNA by using reverse transcriptase and a PCR machine (Applied biosystems, Foster city, CA, USA) and then the PCR was performed with specific primers below.
As the PCR result, the amplified cDNA was isolated with a 1.5% agarose gel by electrophoresis and cDNA bands were verified by using a G:BOX EF imaging system (Syngene, Cambridge, UK), and the result was illustrated in FIG. 7.

transglutaminase = test: Transglutaminase mRNA expression (RT-PCR) in HaCaT human keratinocytes; conditions: HaCaT cells, fucosterol 5, 10, 20 μM, 24 hrs, FIG. 9
Experimental: HaCaT human keratinocytes were incubated in a Dulbecco's Modified Eagle's Media (DMEM) medium including 10% fetal bovine serum and then put in a 6-well plate with 2×10^5 cell/ml (the final volume of 3 ml). After being incubated for 24 hrs, the medium was removed and fucosterol which was dissolved in the DMEM medium was treated at 5, 10, and 20 μM concentrations, respectively. After 24 hrs, the total RNA was collected by using a TRIzol reagent (Invitrogen, Carlsbad, Calif., USA) and reverse-transcribed and then a reverse transcription-polymerase chain reaction (RT-PCR) analysis was performed below. First, for cDNA synthesis, the RNA was reverse-transcribed by reverse transcriptase. The RT-PCR was performed by specific primers below and the result was illustrated in FIG. 9.

caspase 14 = test: Caspase 14 mRNA expression (RT-PCR) in HaCaT human keratinocytes; conditions: HaCaT cells, fucosterol 5, 10, 20 μM, 24 hrs, FIG. 11
Experimental: HaCaT human keratinocytes were incubated in a Dulbecco's Modified Eagle's Media (DMEM) medium including 10% fetal bovine serum and then put in a 6-well plate with 2×10^5 cell/ml (the final volume of 3 ml). After being incubated for 24 hrs, the medium was removed and fucosterol which was dissolved in the DMEM medium was treated at 5, 10, and 20 μM concentrations, respectively. After 24 hrs, the total RNA was collected by using a TRIzol reagent (Invitrogen, Carlsbad, Calif., USA) and reverse-transcribed and then a reverse transcription-polymerase chain reaction (RT-PCR) analysis was performed below. First, for cDNA synthesis, the RNA was reverse-transcribed by reverse transcriptase. The RT-PCR was performed by specific primers below and the result was illustrated in FIG. 11.

filaggrin = test: Filaggrin protein expression (western blot) in HaCaT human keratinocytes; conditions: HaCaT cells, fucosterol 5, 10, 20 μM, 24 hrs, FIG. 12
Experimental: HaCaT human keratinocytes were incubated in a Dulbecco's Modified Eagle's Media (DMEM) medium including 10% fetal bovine serum and then put in a 6-well plate with 2×10^5 cell/ml (the final volume of 3 ml). After being incubated for 24 hrs, the medium was removed and fucosterol which was dissolved in the DMEM medium was treated at 5, 10, and 20 μM concentrations, respectively. After 24 hrs, the HaCaT human keratinocytes were lysed with a NP40 buffer solution including proteinase inhibitor cocktail. The protein amount extracted from the HaCaT human keratinocytes was quantified by using a Bradford method. The sample was boiled for 5 min and then the same amount of protein ([…]) was isolated by electrophoresis with 10% SDS-PAGE. The isolated proteins after electrophoresis were transferred to a nitrocellular membrane and western blot was performed. A primary antibody was reacted and the nitrocellular membrane was washed three times by using Tris-buffer saline tween20 (TBST) for 10 min. In this case, the kind and the dilution of the primary antibody used in the present invention is 1:1000. In a secondary antibody reaction, a secondary antibody was put in the membrane performing the primary antibody reaction and reacted for 2 hrs at room temperature. In this case, a dilution of the secondary antibody was 1:5000. […]

**Q.** With `C/C=C(\CC[C@@H](C)[C@H]1CC[C@H]2[C@@H]3CC=C4C[C@@H](O)CC[C@]4(C)[C@H]3CC[C@]12C)C(C)C` [fucosterol] as the compound, how does the “mRNA amount of MITF” value [1] read?
**A.** Its value is “reduced”.

**Q.** What about the “mRNA expression of transglutaminase” value (transglutaminase) of the same compound?
**A.** The value was “increased”.

**Q.** And the “mRNA expression of caspase 14” value (caspase 14)?
**A.** Its value is “increased”.

**Q.** And the “protein expression of filaggrin” value (filaggrin)?
**A.** Its value is “increased”.
